Experimental data taken from ChEMBL document CHEMBL1201862, “PubChem BioAssay data set” (2004).
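All cell lines were grown in 96-well plates and treated with compound for 48 hours. GI50 is the concentration that inhibits growth by half.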 Active and inactive are the calls of the source. Rule as the data show it: active = GI50 up to about 1.1 µM and inactive = higher.

Experiments:
Experiment in all cases: NCI-60 cell line screen, 48 h
[1] = test system: SF-295
[2] = test system: M14
[3] = test system: A549
[4] = test system: 786-0
[5] = test system: IGROV-1
[6] = test system: SK-MEL-2
[7] = test system: TK-10
[8] = test system: HOP-62
[9] = test system: HCC 2998
[10] = test system: Malme-3M
[11] = test system: KM-20L2
[12] = test system: NCI-H460
[13] = test system: HT-29
[14] = test system: PC-3
[15] = test system: MCF7
[16] = test system: CAKI-1
[17] = test system: MDA-N
[18] = test system: MDA-MB-435
[19] = test system: A498
[20] = test system: Hs-578T

Measured: GI50

COC(=O)c1c(C(=O)OC)c2cc(C(=O)c3ccccc3)ccn2c1Cl
inactive: [1] 26.4 µM | [2] 34 µM | [3] 41.5 µM | [4] 44.6 µM | [5] 53.1 µM | [6] 48.4 µM | [7] 67.1 µM | [8] 37.2 µM | [9] > 100 µM | [10] 52.7 µM | [11] 55 µM | [12] 50 µM | [13] 47.1 µM

CC[N+](CC)(CCNCC(N)=O)CC(N)=O
inactive: [1] > 10 µM | [2] > 10 µM | [14] > 10 µM | [15] > 10 µM | [16] > 10 µM | [3] > 10 µM | [4] > 10 µM | [5] > 10 µM | [17] > 10 µM | [6] > 10 µM | [7] > 10 µM | [8] > 10 µM | [18] > 10 µM | [9] > 10 µM | [19] > 10 µM | [10] > 10 µM | [12] > 10 µM | [20] > 10 µM | [13] > 10 µM

O=C1c2ccccc2C(=O)C1(Cl)C1(S(=O)(=O)O)c2ccccc2-c2ccccc21
inactive: [1] > 100 µM | [2] > 100 µM | [16] > 100 µM | [3] > 100 µM | [4] > 100 µM | [5] > 100 µM | [7] > 100 µM | [8] > 100 µM | [9] > 100 µM | [19] > 100 µM | [10] > 100 µM | [11] > 100 µM | [12] > 100 µM | [13] > 100 µM

CC(=O)c1ccc(NC(=O)C(=O)C(C(=O)c2ccc(Cl)c(Cl)c2)C2OC(=O)c3ccccc32)cc1 (stereo not drawn)
inactive: [2] 17.7 µM | [16] 14.6 µM | [3] 21.4 µM | [4] 16.1 µM | [5] 29.7 µM | [7] 31.4 µM | [8] 18.9 µM | [9] 13.7 µM | [19] 16.6 µM | [10] 5.97 µM | [11] 34.4 µM | [12] 13.2 µM | [13] 25.3 µM

O=C(CC(NC(=O)C(F)(F)F)C(=O)O)OCc1ccccc1 (stereo not drawn)
inactive: [1] > 100 µM | [2] > 100 µM | [14] > 100 µM | [15] > 100 µM | [16] > 100 µM | [3] > 100 µM | [4] > 100 µM | [5] > 100 µM | [17] > 100 µM | [6] > 100 µM | [7] > 100 µM | [8] > 100 µM | [18] > 100 µM | [9] > 100 µM | [19] > 100 µM | [10] > 100 µM | [12] > 100 µM | [20] > 100 µM | [13] > 100 µM

Cc1cnc2c(C)ccc([N+](=O)[O-])c2c1NCCCN(C)C
inactive: [1] > 100 µM | [2] > 100 µM | [16] > 100 µM | [3] > 100 µM | [4] > 100 µM | [5] > 100 µM | [6] > 100 µM | [7] > 100 µM | [8] > 100 µM | [9] > 100 µM | [10] 73.6 µM | [11] > 100 µM | [12] > 100 µM | [13] > 100 µM

CC(=O)NC1=C(NCCN(C)C)C(=O)c2ccccc2C1=O
inactive: [1] 15.2 µM | [2] 18.4 µM | [3] 15 µM | [4] 18.1 µM | [5] 14.7 µM | [6] 15.3 µM | [7] 27.8 µM | [8] 14.5 µM | [9] 14.9 µM | [10] 7.62 µM | [11] 16.4 µM | [12] 12.8 µM | [13] 13.8 µM

Cc1nc2ccccc2n1COC(Cn1ccnc1)c1ccc(Cl)cc1Cl (stereo not drawn)
inactive: [1] 71 µM | [2] > 100 µM | [14] 23.4 µM | [15] 41.7 µM | [16] 17.4 µM | [3] 72.4 µM | [4] 75.7 µM | [5] > 100 µM | [17] 48.8 µM | [6] 64 µM | [7] 83.9 µM | [8] 57.3 µM | [18] 50.1 µM | [9] 76 µM | [19] > 100 µM | [10] > 100 µM | [12] 15.3 µM | [20] 81.7 µM | [13] 62.2 µM

O=[N+]([O-])c1ccc(Sc2c3ccccc3nc3ccccc23)cc1
inactive: [1] > 100 µM | [2] > 100 µM | [16] > 100 µM | [3] > 100 µM | [4] > 100 µM | [5] > 100 µM | [6] > 100 µM | [8] > 100 µM | [9] > 100 µM | [10] > 100 µM | [11] > 100 µM | [12] > 100 µM | [13] > 100 µM

O=C1/C(=C/c2ccccc2)CN(C(=O)C(F)(F)F)C/C1=C\c1ccccc1
inactive: [1] 1.59 µM | [2] 1.61 µM | [3] 3.17 µM | [4] 1.68 µM | [5] 2.29 µM | [6] 7.98 µM | [7] 3.61 µM | [8] 11.5 µM | [19] 1.98 µM | [10] 3.72 µM | [11] 2.11 µM | [12] 1.56 µM | [13] 1.3 µM

C=CC1C(OC2OC(CO)C(O)C(O)C2O)OC=C(C(=O)OC)C1CC=O (stereo not drawn)
inactive: [1] > 100 µM | [2] > 100 µM | [3] > 100 µM | [4] > 100 µM | [5] > 100 µM | [6] > 100 µM | [8] > 100 µM | [19] > 100 µM | [10] > 100 µM | [11] > 100 µM

Oc1[nH]c(Nc2ccc(Cl)c(C(F)(F)F)c2)nc2ncnc1-2
inactive: [1] > 100 µM | [2] 57.4 µM | [14] 33 µM | [15] 27.2 µM | [16] > 100 µM | [3] > 100 µM | [4] 25.7 µM | [5] 35.7 µM | [17] 25.6 µM | [6] 25.5 µM | [7] 52.6 µM | [8] > 100 µM | [18] 50.2 µM | [9] 24.7 µM | [19] 24 µM | [10] 30.3 µM | [12] 51.8 µM | [20] 38.5 µM | [13] 33 µM

CNc1c2c(c3nc4ccccc4c4c3c1N=C4)NCCC2=O [PLAKINIDINE A]
inactive: [1] 4.5 µM | [2] > 10 µM | [14] 3.46 µM | [15] 2.66 µM | [16] 4.69 µM | [3] 3.52 µM | [4] 2.41 µM | [5] 4.42 µM | [17] 7.35 µM | [6] > 10 µM | [7] 8.51 µM | [8] 8.59 µM | [18] 5.79 µM | [9] 5.08 µM | [19] 2.67 µM | [10] 4.65 µM | [12] 3.15 µM | [20] > 10 µM | [13] 2.23 µM
